# Reference: patent US20160081959A1 (Glanbia plc, priority 2014, published 2016)
# Where two headings read alike, the source gives them in different places.
# Key:
# vasodilatory response = conditions: in vivo; cited from earlier work
# [1] = Single dose oral pharmacokinetic study in fasted male Sprague Dawley rats (arginine in plasma, LC-MS/MS); type: in vivo
# Method: Oral PK was determined in rats for ASI and several comparative compounds.
# Test system: Sprague Dawley rats, male. Aged 7-9 weeks at the time of receipt.
# Sample size: Study groups—4 groups per study; 5 animals/group.
# The test compounds were administered through oral gavage. Oral route of administration is one of the preferred routes of administration in humans.
# (§1) Study Group 1: Single dose oral pharmacokinetic study of ResArgin in male Sprague Dawley rats at a dose equivalent to 500 mg of L-Arginine/kg body weight. Male Sprague Dawley Rats aged 8-10 weeks were used for experimentation after a minimum 3 days of acclimatization. Fasted animals were administered ResArgin in a recommended vehicle (0.5% (w/v) Carboxymethylcellulose in sterile water) by oral route with a dose equivalent to 500 mg L-Arginine/kg body weight at dose volume of 10 mL/kg body weight.
# Under mild isoflurane anesthesia, blood specimens were collected at time points (0.0 h, 0.16 h, 0.25 h, 0.50 h, 1.00 h, 2.00 h, 4.00 h, 6.00 h) post-dose as mentioned in Table 1 into pre-labeled tubes containing anticoagulant (K2EDTA—2 mg/mL blood) during the next 24 hours. Collected blood specimens were centrifuged at 4000 rpm, 4° C. for 10 minutes and plasma was separated and stored at −80° C. until analysis.
# Study Group 2: Single dose oral pharmacokinetic study of L-Arginine in male Sprague Dawley rats at a dose of 500 mg/kg body weight. Male Sprague Dawley Rat aged 8-10 weeks were used for experimentation after a minimum 3 days of acclimatization. Fasted animals were administered L-Arginine in a recommended vehicle (0.5% (w/v) Carboxymethylcellulose in sterile water by oral route with 500 mg/kg body weight at dose volume of 10 mL/kg body weight.
# as §1, with “3:” for “1:”, “L-Arginine HCl” for “ResArgin”
# Male Sprague Dawley Rats aged 8-10 weeks were used for experimentation after a minimum 3 days of acclimatization.
# Bioanalytical method(s) for the determination of arginine in Rat plasma were developed using LC-MS/MS. The developed methods were used for plasma sample analysis. Chromatograms were acquired using Analyst® software version 1.4.2. The concentration of the unknown sample was calculated from the following equation using regression analysis with peak area ratio of standard and ISD vs calibration standards concentration, using weighting factor (1/x^2) in accordance with Equation (1): […]
# The pharmacokinetic parameters including Cmax, Tmax, AUC0-t, AUC0-inf, T1/2 and MRTlast of the arginine in rat plasma were determined from the concentration time data by using non-compartmental analysis (Phoenix WinNonlin 6.3, Pharsight Corporation, Princeton, N.J., USA).
# Statistical analysis of PK parameters was performed by one way ANOVA followed by Dunnett's Post Test (L-Arginine Base vs ResArgin, L-Arginine HCl, and Arginine Silicate Inositol, respectively).
# wound healing [2] = conditions: 17 g/day, after two weeks, cited from earlier work
# wounds = conditions: ingested; mice; cited from earlier work
# [3] = Human clinical PK/PD/safety study of Nitrosigine (plasma arginine, serum silicon); type: in vivo
# Source text: See, Kalman D, Feldman S, Samson A, Krieger D., “A clinical evaluation to determine the safety, pharmacokinetics and pharmacodynamics of an inositol-stabilized arginine silicate dietary supplement in healthy adult males,” The FASEB Journal (April 2014) 28(1 Suppl.): LB418.
# Purpose: The purpose of this study was to characterize the PK/PD of Nitrosigine®, an inositol-stabilized arginine silicate dietary supplement.
# Type: Prospective, pharmacokinetic (PK)/pharmacodynamic (PD)/safety clinical trial.
# Dosing: Nitrosigine® was administered as daily doses of 1,500 mg (3×500 mg tablets).
# Visit 2: single dose evaluation (0-6 hrs), 1500 mg—this was also utilized as the first dose of the 14 day study. It is noted in addition that Visit 2 is also the beginning of the 14 day study, during which subjects take product once a day for 14 days.
# Visit 3: 14 days later, single dose (0-6 hrs)
# PK Measurements: Plasma arginine and serum silicon levels were measured after the first dose on Day 1 and again after a dose taken on Day 14, after 14 days of dosing.
# wound healing [4] = assay: Example 2: topical ASI hydrogel, Vits, et al. ablative laser wound protocol; type: in vivo, human; conditions: expected
# Method: Wound 1 (2013) December 30.
# The Vits, et al. protocol is used as follows. In 22 healthy men (experimental group, n=11; control group, n=11) wounds are induced by ablative laser on both thighs. Hydrogel (placebo) is applied on one of the two wounds, and Hydrogel (containing ASI) is applied on the wound of the other thigh. Progress in wound healing was documented via planimetry on days 1, 4 and 7 after wound induction. From day 9 onwards wound inspections were performed daily accompanied by a change of the dressing and a new application of the gel.
# [5] = system: blood proteins related to vasodilation and heart health; assay: Blood proteins after ASI treatment; conditions: in vivo
# Nitric oxide (NO) levels = assay: Nitric oxide levels by salivary test strips in the human clinical study; type: in vivo
# Method: NO was measured using salivary test strips, using a color scale for “Depleted”, “Low”, and “Normal” levels. […] Six subjects who were “Depleted” at Visit 2 increased to “Low” at Visit 3, while no subjects went from “Low” at Visit 2 to “Depleted” at Visit 3. In addition, the Visit 3 treatment after 1 hr gave 3 subjects “Depleted”, 4 subjects “Low”, and 3 subjects “Normal.” This “asymmetric” change pattern was statistically significant (p=0.031).
# wound healing [6] = assay: Example 1: oral ASI, Kirk, et al. wound healing protocol in human volunteers; type: in vivo; conditions: ASI 1500 mg daily, 2 weeks; expected
# Method: The Kirk, et al. protocol is used as follows. […] Fifteen volunteers receive a placebo tablet. Fibroplastic wound responses are assessed by inserting a polytetrafluoroethylene catheter subcutaneously into the right deltoid region. Epithelialization is examined by creating a 2×2 cm split thickness wound on the lateral aspect of the upper thigh. Mitogenic response of peripheral blood lymphocytes to concanavalin A, phytohemagglutinin, pokeweed mitogen, and allogeneic stimuli is assayed at the beginning and end of supplementation. Polytetrafluoroethylene catheters were analyzed for alpha-amino nitrogen (assessment of total protein accumulation), hydroxyproline (index of reparative collagen synthesis), and DNA accumulation (index of cellular infiltration).
# [7] = system: muscle soreness, muscle damage, and recovery; assay: Example 3: clinical study of muscle soreness, muscle damage and recovery; type: in vivo, human; conditions: ASI 750 mg 2×/day for 14 days with training regimen; expected
# Method: Clinical Study to measure muscle soreness, muscle damage, and recovery. Crossover PCT.
# Study group: n=16 males exercising <150 mins/week.
# Secondary endpoints: NO level, blood pressure, heart rate, leg circumference, patient survey/self-assessment, e.g., visual analog scale (VAS) for pain, intramuscular biopsy.
# [8] = arginine in plasma, fasted male Sprague Dawley rats, single oral dose equivalent to 500 mg L-Arginine/kg b.w.
# [9] = rat, 500 mg/kg, arginine in plasma, fasted male Sprague Dawley rats, single oral dose equivalent to 500 mg L-Arginine/kg b.w.
# [10] = rat, 500 mg/kg, arginine in plasma, fasted male Sprague Dawley rats, single oral dose equivalent to 500 mg L-Arginine/kg b.w., read-out: Cmax
# [11] = rat, 500 mg/kg, arginine in plasma, fasted male Sprague Dawley rats, single oral dose equivalent to 500 mg L-Arginine/kg b.w., read-out: Tmax
# [12] = plasma arginine, rat, oral, 500 mg/kg L-Arginine equivalent
compound,measurement,setting,value
"N=C(N)NCCC[C@H](N)C(=O)O [L-Arginine Base, L-Arginine]",amount that induces a significant vasodilatory response,vasodilatory response,ca. 5 grams
same,AUC% extrap,[1]; [8],8.195 ± 5.9280%
same,AUC(0-inf),[1]; [9],486 ± 114 µg·h/mL
same,AUC(0-t),[1]; [9],445 ± 106 µg·h/mL
same,MRT last,[1]; [9],1.66 ± 0.34 h
same,half-life,[1]; [9],84.4 ± 30.6 min
same,Cmax,[1]; [10],202 ± 54.3 µg/mL
same,Tmax,[1]; [11],0.65 ± 0.335 h
"Cl.N=C(N)NCCC[C@H](N)C(=O)O [L-Arginine HCl, L-Arginine hydrochloride]",amount that induces a significant vasodilatory response,vasodilatory response,ca. 5 grams
same,AUC% extrap,[1]; [8],27.645 ± 23.5890%
same,AUC(0-inf),[1]; [9],442 ± 122 µg·h/mL
same,AUC(0-t),[1]; [9],306 ± 92.7 µg·h/mL
same,MRT last,[1]; [9],2.48 ± 0.368 h
same,half-life,[1]; [9],185 ± 125 min
same,Cmax,[1]; [10],94.7 ± 26.2 µg/mL
same,Tmax,[1]; [11],1.1 ± 0.548 h
"N=C(N)NCCC[C@H](N)C(=O)O [arginine, L-arginine]",hydroxyproline and protein accumulation at the wound site vs non-supplemented controls,wound healing [2]; 30 elderly patients,significantly greater
same,IGF-1,wound healing [2],elevated
same,lymphocyte response,wound healing [2],elevated
O=[Si]=O [silica],closing and healing of wounds,wounds,effective at helping to close and heal wounds
arginine silicate inositol [ASI],adverse events related to the study medication,"[3]; 1,500 mg daily for 14 days, 10 subjects",No adverse events related to the study medication
same,increase of plasma arginine concentration relative to baseline,"[3]; in 30 minutes, single dose 1,500 mg, human",greater than 30%
same,Arginine absorption: Tmax Day 1,"[3]; plasma arginine, 10 healthy males, 1,500 mg oral, Day 1",1.05 ± 0.50 h
same,Silicon absorption: Tmax Day 1,"[3]; serum silicon, 10 healthy males, 1,500 mg oral, Day 1",2.15 ± 1.75 h
same,duration of significantly raised blood arginine and silicon levels,"[3]; single dose, human",up to 3 hours
same,wound healing of wounds treated with ASI-containing gel vs placebo hydrogel,wound healing [4],more rapid improvement in wound healing
same,effect on blood proteins related to vasodilation and heart health,[5],significantly enhances
same,change in NO levels after 14 days of administration,"Nitric oxide (NO) levels; 1,500 mg/day for two weeks, Visit 2 vs Visit 3",significant increase
same,subjects with NO level Depleted,Nitric oxide (NO) levels; Visit 3 treatment after 1 hr,3 subjects
same,subjects with NO level Low,Nitric oxide (NO) levels; Visit 3 treatment after 1 hr,4 subjects
same,subjects with NO level Normal,Nitric oxide (NO) levels; Visit 3 treatment after 1 hr,3 subjects
same,subjects who were Depleted at Visit 2 and increased to Low at Visit 3,"Nitric oxide (NO) levels; salivary NO strips, 10 subjects, 14 days daily dosing",Six
same,amount with which similar vasodilatory responses have been shown,vasodilatory response,750 mg
same,AUC% extrap,[1]; [8],16.987 ± 10.5790%
same,AUCinf,[1]; [8],1499.898 ± 233.6230 µg·h/mL
same,AUClast,[1]; [8],1248.990 ± 276.1000 µg·h/mL
same,Cmax,[1]; [8],474.300 ± 169.1040 µg/mL
same,MRTlast,[1]; [8],2.220 ± 0.2450 h
same,T1/2,[1]; [8],2.159 ± 0.8280 h
same,Tmax,[1]; [8],1.100 ± 0.5480 h
same,AUCinf increase compared with Arginine base,[1]; [12],3 fold
same,AUCinf increase over Arginine base in plasma,[1]; [12],209%
same,Cmax increase compared with Arginine base,[1]; [12],2.35 fold
same,Cmax increase over Arginine base in plasma,[1]; [12],135%
same,rate of epithelialization of the skin defect vs placebo,wound healing [6],significantly enhanced
same,rate of wound healing vs placebo,wound healing [6],increased
same,serum insulin-like growth factor-1 (IGF-1) levels,wound healing [6],significantly elevated
same,wound catheter hydroxyproline accumulation and total protein content vs placebo,wound healing [6],increase
same,cytokine markers of inflammation,[7],decrease or improvement
same,listed measurement parameters (e.g. NO levels),[7],improve
